Data from article PMC7037393, “Synthesis, Structural, and Cytotoxic Properties of New Water-Soluble Copper(II) Complexes Based on 2,9-Dimethyl-1,10-Phenanthroline and Their One Derivative Containing 1,3,5-Triaza-7-Phosphaadamantane-7-Oxide” (Molecules, 2020).

Target: T1, human apo-transferrin (apo-Tf) (Homo sapiens, UniProt P02787)
T1 construct: purchased Sigma-Aldrich
Experiment: Circular dichroism of apo-transferrin, alpha-helix content
Format: binding
Details: free protein 19.80%
Procedure: Circular dichroism (CD) measurements in the far UV region were performed to determine the effect of copper complexes on the apo-transferrin secondary structure. A characteristic for α-helical structure of protein negative bands was visible in the CD spectrum at wavelengths of 210 and 220 nm (Figure 7) and were assigned n-π* transitions peptide bonds. […] The α-helix content the free protein was equal to 19.80%.
High purity apo-transferrin (≥ 98%, Sigma-Aldrich, Steinheim, North Rhine-Westphalia, Germany) was used without prior purification. The stock solutions of the complexes were prepared in demineralized water (1 and 2) or ethanol (3). The apo-Tf was dissolved in PBS (pH 7.40). […] Samples were incubated at 300 and 310 K for 5 min. The apo-Tf concentration was determined using ε (280 nm) = 11.2 mM^−1 × cm^−1.
Circular dichroism measurements were carried out on a Jasco J-715 spectropolarimeter (Tokyo, Japan) in the range of 190–250 nm using 0.1-cm cuvettes. The α-helical content of the protein was calculated from the Equations (9) and (10):(9) MRE209= ObservedCDmdeg/Cp· n· l ·10 (10) α−helix %= −MRE209−4000/33000−4000×100 where MRE is the mean residue ellipticity, Cp is the molar concentration of the protein, n the number of amino acid residues (679), and l is the path length (0.1 cm).

[1] = molar ratio apo-Tf:complex 1:20

T1 sequence (P02787 20-698): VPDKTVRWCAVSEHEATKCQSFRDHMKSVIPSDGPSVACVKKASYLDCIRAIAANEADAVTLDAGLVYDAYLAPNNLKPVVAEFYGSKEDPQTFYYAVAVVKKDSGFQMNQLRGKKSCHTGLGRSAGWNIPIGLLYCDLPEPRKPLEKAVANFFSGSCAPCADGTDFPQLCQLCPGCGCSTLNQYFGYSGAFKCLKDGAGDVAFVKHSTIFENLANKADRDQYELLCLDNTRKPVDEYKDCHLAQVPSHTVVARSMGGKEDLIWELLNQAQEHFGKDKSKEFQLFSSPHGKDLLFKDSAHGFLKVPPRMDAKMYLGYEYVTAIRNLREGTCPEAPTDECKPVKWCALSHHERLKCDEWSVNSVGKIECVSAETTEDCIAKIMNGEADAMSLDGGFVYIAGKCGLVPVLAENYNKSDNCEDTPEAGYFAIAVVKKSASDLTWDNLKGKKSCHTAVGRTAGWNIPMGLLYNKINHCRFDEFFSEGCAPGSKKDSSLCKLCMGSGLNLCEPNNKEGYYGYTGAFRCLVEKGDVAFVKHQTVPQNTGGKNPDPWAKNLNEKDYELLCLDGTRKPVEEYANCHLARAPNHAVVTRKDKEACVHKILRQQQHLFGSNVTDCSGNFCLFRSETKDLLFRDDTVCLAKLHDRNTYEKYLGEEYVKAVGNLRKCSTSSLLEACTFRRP

CC#N.Cc1ccc2ccc3ccc(C)nc3c2n1.O=[N+]([O-])[O-].O=[N+]([O-])[O-].[Cu+2] [Complex 3, [Cu(NO3)2(dmphen)]∙MeCN]
α-helix content of apo-Tf upon binding (molar ratio apo-Tf:complex 1:10): 17.05%
α-helix content of apo-Tf upon binding [1]: 8.16%

Cc1ccc2ccc3ccc(C)nc3c2n1.F[P-](F)(F)(F)(F)F.O=P12CN3CN(CN(C3)C1)C2.O=[N+]([O-])[O-].[Cu+2] [Complex 1, [Cu(NO3)(PTA=O)(dmphen)][PF6]]
α-helix content of apo-Tf upon binding [1]: 19.07%

Cc1ccc2ccc3ccc(C)nc3c2n1.Cc1ccc2ccc3ccc(C)nc3c2n1.F[P-](F)(F)(F)(F)F.[Cl-].[Cu+2] [Complex 2, [Cu(Cl)(dmphen)2][PF6]]
α-helix content of apo-Tf upon binding [1]: 18.00%
